The values that follow come from patent publication US7935525B2, “Inhibition of ATF2 activity to treat cancer” (Mount Sinai School of Medicine, priority 2001, dated 2011).

In one assay the test system is LU1205 cells. Kind of assay: Apoptosis by FACS (hypodiploid fraction). It counts as cell-based, human. Further details: Adriamycin induced programmed cell death, increase compared with control: dose or concentration left out as unconfirmed. The procedure:
(§1) Treatment and apoptosis studies of stably transfected melanoma cells. Cells were exposed to UVC at 75 J/m^2 as previously described (Ronai, Z., et al., Oncogene 1998; 16:523-531). SB203580 (1-10 μM) (Calbiochem®, San Diego, Calif.), NCS (50-100 ng/ml) and mitomycin C (MMC) (0.2-1 μM) were used to treat melanoma cells. Flow cytometric analysis was performed on a FACSCalibur™ flow cytometer (Becton Dickinson) using CellQuest™ software as described previously (Nicoletti et al., J. Immunol. Methods 1991; 139:271-279). Cells were pelleted and resuspended in 0.5 ml of hypotonic buffer with 0.1% Triton X-100 containing PI (40 μg/ml) and DNase-free RNase A (1 mg/ml). Cells were incubated at 37° C. for 30 min and analyzed on a FACSCalibur™ flow cytometer (Becton Dickinson). The percentage of cells to the left of the diploid G0/1 peak, characteristic of hypodiploid cells that have lost DNA, was defined as the percentage of apoptotic cells. Analysis was performed with light scatter gating. Surface expression of Fas was determined using anti-Fas-PE antibody (PharMingen® CA) and flow cytometric analysis. Cell surface expression is measured as mean fluorescence intensity (MFI).
For orientation: In flow cytometry, cells or beads pass a laser one at a time.

A further assay relates to FEMX tumor cells. Kind of assay: Growth of transplanted FEMX tumors in mice. The following applies: single agent: UCN-01 by gavage, or peptide expressed in tumor cells. In kind it is in vivo. As for the experimental part:
(§2) Tumor growth and metastasis evaluation in vivo. Cell lines established in culture to constitutively or inducibly express the peptide were injected into mice subcutaneously (S.C.). LU1205, FEMX and SW-1 cells that expressed control or peptide II were trypsinized, resuspended in PBS and injected SC (1×10^6) into 6-7 week old mice in the lower flank. When the tumor reached the size of about 50 mm^3, 5 μM of SB203580 was injected into four areas of the LU1205 tumors every 4 days during a 2-week period. For FEMX tumors UCN-01 (2.5 mg/kg) was fed by gavage twice a day, three times per week for a total of 2 weeks. Tumor growth was monitored every two days. SW-1 cells expressing peptide II under tet-inducible vector were injected SC (1×10^6). When tumors reached a size of about 50 mm^3, the mice received doxycycline in their drinking water ([…]) for a total of 2-4 weeks. At the end of the experiment, the tumors were excised and weighed. The lungs and other organs were subjected to histopathological examination to detect metastatic lesions.

Assay [1] concerns human melanocytes (FOM71). Kind of assay: Apoptosis by FACS (hypodiploid fraction). In kind it is cell-based. The following applies: melanocytes; SB203580 or NCS (100 ng/ml); 36 h. As for the experimental part:
as §1

Another assay relates to LU1205 tumor cells. The experiment in a line: Growth of transplanted LU1205 tumors in mice. In kind it is in vivo. The following applies: single agent: inhibitor injected into tumor, or peptide expressed in tumor cells. As for the experimental part:
as §2

For the next assay, the system named is FEMX melanoma cell line. Kind of assay: Colony forming efficiency (CFE) resistance assay. In kind it is cell-based, human. The following applies: peptide-expressing FEMX vs neo control; UV-treatment; 14 days. As for the experimental part: (§3) Radiation resistance. Cells (500 or 1500 per well) were plated in triplicates on 6 well plates, 24 h before treatment (Ronai et al., Oncogene 1998; 16:523-531). In all cases, plating efficiency was pre-determined so that number of cell plated was normalized respectively. Colonies (greater than 50 cells per clone) were stained with crystal violet solution (3% in 10% methanol and PBS), 14 days After treatment. % of CFE in each treatment group was calculated based on total CFE formed in the respective controls (100%).

Assay [2] relates to LU1205 melanoma cell line. The experiment in a line: Colony forming efficiency (CFE) resistance assay. In kind it is cell-based, human. The procedure:
as §3

For assay [3], the system named is Adriamycin-resistant MCF7 cell line (MCF7-Adr). The experiment in a line: Apoptosis by FACS (hypodiploid fraction). Particulars: peptide-expressing MCF7-Adr; neo controls 3-fold; 36 h. It counts as cell-based, human. The procedure: [Worded in the source for another cell line; this cell line is reported under the same test.] as §1
A further assay relates to FEMX cells. Kind of assay: Apoptosis by FACS (hypodiploid fraction). It counts as cell-based, human. Particulars: peptide-expressing FEMX; UV-C 75 J/m2; 36 h; neo control 13%. As for the experimental part: as §1
Assay [4] deals with MCF7 breast cancer-derived cell line. The experiment in a line: Apoptosis by FACS (hypodiploid fraction). In kind it is cell-based, human. Particulars: peptide-expressing MCF7; UV; 36 h. As for the experimental part:
[Worded in the source for another cell line; this cell line is reported under the same test.] as §1

For assay [5], the system named is WM1552 early-phase melanoma cell line. The experiment in a line: Apoptosis by FACS (hypodiploid fraction). It counts as cell-based, human. The following applies: peptide-expressing WM1552; UV-C 75 J/m2; 36 h. As for the experimental part:
as §1

The test system of assay [6] is 293T human kidney embryonic cells. Kind of assay: Apoptosis by FACS (hypodiploid fraction). It counts as cell-based. Particulars: peptide-expressing 293T; normal growth conditions. The procedure:
[Worded in the source for another cell line; this cell line is reported under the same test.] as §1

In another assay the test system is Fas. Kind of assay: Cell surface expression of Fas by FACS. It counts as cell-based, human. The following applies: peptide-expressing LU1205; control 122. As for the experimental part: as §1
For a further assay, the system named is Fas promoter. Kind of assay: Fas promoter activity (-460 Fas promoter region). It counts as cell-based, human. The following applies: peptide-expressing LU1205.
In assay [7] the test system is ATF2. The experiment in a line: ATF2 phosphorylation in peptide-expressing melanoma cells. Particulars: UV-treated; vs control vector cells. It counts as cell-based, human.
For assay [8], the system named is ATF2 transcriptional output. Kind of assay: Jun-2-Luc activities in peptide IV-expressing cells. It counts as cell-based.
In assay [9] the test system is ATF2. The experiment in a line: GST binding assay. The following applies: GST pull-down. As for the experimental part: (§4) Electrophoretic mobility shift assays were performed as described. (Ivanov and Ronada, J Biol Chem 1999; 274(20):14079-89). GST binding assays were performed with GST-peptide II as described (Adler et al., Proc Natl Acad Sci USA 1995; 92 10585-9). SW1 cells expressing control vector or peptide II were subjected to FACS analysis following their incubation with antibodies to the cell surface receptor of FAS as described above.

In another assay the test system is JNK. The experiment in a line: GST binding assay. Particulars: GST pull-down; greater binding in extracts of UV-treated cells. As for the experimental part:
as §4

No end group written: not given here.

Consider `COc1cccc2c1C(=O)c1c(O)c3c(c(O)c1C2=O)C[C@@](O)(C(=O)CO)C[C@@H]3O[C@H]1C[C@H](N)[C@H](O)[C@H](C)O1` [Adriamycin®, reference compound], for which the “Adriamycin induced programmed cell death, increase compared with control” value with LU1205 cells (LU1205, ADR alone) is reported as 2 fold.

For `CN[C@@H]1C[C@H]2O[C@@](C)([C@@H]1OC)n1c3ccccc3c3c4c(c5c6ccccc6n2c5c31)C(=O)N[C@H]4O` [UCN-01, 7-hydroxystaurosporine, reference compound], the tumor cell growth result with FEMX tumor cells is “little effect, if any”.

For neocarzinostatin [NCS], the “changes in degree of apoptosis” value in [1] was “neither NCS nor SB203580 elicited any significant changes”.

Consider `C[S+]([O-])c1ccc(-c2nc(-c3ccncc3)c(-c3ccc(F)cc3)[nH]2)cc1` (centres unmarked) [SB203580, reference compound], for which the “changes in degree of apoptosis” value in [1] is given as “neither NCS nor SB203580 elicited any significant changes”. The tumor cell growth entry in the assay on LU1205 tumor cells is “almost no effect”.

For “peptide IV: ATF2 peptide of amino acid residues 150-200, expressed from pcDNA3 with HA-penetratin tag (EVPLAQTAQPTSAIVRPASLQVPNVLLTSSDSSVIIQQAVPSPTSSTVITQ; not fully specified; also: HA-penetratin tag, position not given here; UniProt P15336 150-200, looked up, fragment)”, the “increase in the % of CFE” value with FEMX melanoma cell line is given as no more than 2.5 fold; in [2] (peptide-expressing LU1205 vs neo control, UV-treatment, 14 days) it was no more than 2.5 fold. Moreover, the “increase in the resistance to NCS (CFE)” value in [2] (peptide-expressing LU1205, low dose of NCS) is reported as roughly 2 fold. Also, the “increase in degree of apoptosis over control neo cells given Adriamycin and verapamil” value with LU1205 cells (peptide-expressing LU1205, Adriamycin + verapamil) is on record as 70%. For the same molecule, the “apoptotic fraction of UV-treated cells” value in the assay with LU1205 cells (peptide-expressing LU1205, UV-C 75 J/m2, 36 h, neo control 15%) turned out to be 10%; in the assay with FEMX cells, 8%. Moreover, in the assay with LU1205 cells (peptide-expressing LU1205, higher doses (10 μM) of SB203580, 36 h), the “increase in the degree of cell death” value was 2 fold. Besides, the “increase in cell death” value in the assay on LU1205 cells (peptide-expressing LU1205, low doses of SB203580, 36 h) was “did not alter the degree of cell death”. In addition, the “increase in apoptosis following UV-treatment” value in [3] was “greater than 4 fold”. Further, the “decrease in the degree of apoptosis after UV-treatment compared with MCF7 neo control cells” value in assay [4] is reported as 5 fold. Moreover, the “sensitization to UV-induced apoptosis” value in assay [5] was “did not cause higher level of apoptosis”. The “increase in the degree of basal apoptosis” value in assay [6] is reported as 15 fold. Moreover, the “cell surface expression of Fas, mean fluorescence intensity” value with Fas is on record as “did not cause major changes”. The “Fas promoter mediated transcription” value with Fas promoter was “decrease in Fas promoter mediated transcription”. Also, the “ATF2 phosphorylation after UV-treatment” value in the assay on ATF2 [7] is “higher degree of increase in ATF2 phosphorylation”. In addition, in assay [8], the “transcriptional output measured via Jun-2-Luc activities” value is given as “elevated transcriptional output”.

B1: amino acid residues 1-115: larger region of the amino-terminal ATF2 domain (amino acid residues 1-115) (protein, UniProt P15336 1-115, looked up, fragment)
chain: MKFKLHVNSARQYKDLWNMSDDKPFLCTAPGCGQRFTNEDHLAVHKHKHEMTLKFGPARNDSVIVADQTPTPTRFLKNCEEVGLFNELASPFENEFKKASEDDIKKMPLDLSPLA
On to B1, for which, in the assay on ATF2 [9], the “association with ATF2” value is given as “weaker association”. For the same molecule, the “association with JNK” value in the assay on JNK is “equivalent association”.
